Measurements: US20170189547A1, “Biodegradable Drug Delivery Composition” (Durect Corporation, priority 2010, published 2017)

Target: T1, hGH (Homo sapiens, UniProt P01241)
T1 construct: purchased Hospira, Adelaide
Assay: Complexation capability of hGH with anionic and cationic agents (non-complexed hGH in supernatant by RPLC)
Type: physicochemical
Conditions: for Observation: hGH with complexing agent; for Supernatant Analysis (% of hGH): non-complexed hGH by RPLC
Experimental: Additional complexation agents were tested in vitro for their ability to precipitate rhGH.
Human growth hormone (purchased from Hospira, Adelaide) was complexed with poly lysine, poly arginine, poly adenylic acid (poly-A), or poly thymine (poly-T) in appropriate ratios (as specified in Table 28) to form suspensions. Supernatant was separated from precipitate (ppt) by centrifugation of the complexed material suspensions. The supernatant solution was analyzed for non-complexed hGH by reverse phase liquid chromatography (RPLC).

T1 sequence (P01241 27-217): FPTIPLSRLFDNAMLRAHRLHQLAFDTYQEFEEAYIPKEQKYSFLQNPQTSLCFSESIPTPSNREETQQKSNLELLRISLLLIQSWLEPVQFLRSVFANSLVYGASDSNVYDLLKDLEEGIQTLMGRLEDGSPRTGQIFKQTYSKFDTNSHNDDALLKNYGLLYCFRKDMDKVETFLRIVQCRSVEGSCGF

Row | Observation (concentration ratio 1:2) | Supernatant Analysis (% of hGH) (concentration ratio 1:2) | Substance | Observation (concentration ratio 1:10) | Supernatant Analysis (% of hGH) (concentration ratio 1:10)
1 | No ppt | >90 % of hGH | Hyaluronic Acid |  | 
2 |  |  | Poly-Lysine | Cloudy ppt | 9.5 % of hGH
